Changes are numbered by the printed parent chain. Entries after “also recorded” stand apart in the source; their conditions may differ.
Columns and labels:
human platelets [1] = test: Ex vivo platelet adhesion, human whole blood over immobilized plasma VWF or rVWF-A1, 1600 s^-1; assay type: cell-based; conditions: for translocation velocities of human platelets: mean±s.e.m, n=4; for human platelet accumulation on immobilized protein / human platelet deposition as compared with same-species controls: human whole blood; for human platelet accumulation on immobilized protein: 1600 s^-1; for human platelet deposition as compared with same-species controls: 1600 s^-1, 4 min
Protocol: Experiments were performed in a parallel-plate flow chamber as previously described (Offermanns, S. (2006) Circ. Res. 99, 1293-1304). For studies involving plasma VWF, a polyclonal anti-VWF antibody (Dako) was absorbed overnight (4° C.) to a six well tissue culture plate. Subsequently, the plate was washed and non-specific interactions blocked by the addition of TBS containing 3% BSA, pH 7.4 (1 h, 37° C.). Human or murine plasma obtained from heparinized whole blood was added and the plates placed at 37° C. for an additional 2 h. Generation, purification, and surface-immobilization of recombinant VWF-A1 proteins was performed as previously described (Doggett, T. A. et al. Biophys. J. 83, 194-205 (2002)). Both human and murine VWF-A1 constructs consist of amino acid residues 1238 to 1471, with a single intra-disulfide bond formed between residues 1272 and 1458 and were generated in bacteria. Citrated whole blood (150 μl) collected via cardiac puncture from anesthetized homozygous VWF^1326R>H or WT mice or from venopuncture from human volunteers was perfused over the immobilized substrates at a wall shear rate of 1600 s^−1 for 4 min, followed by washing with Tyrode's buffer under the identical flow conditions. The number of platelets attached per unit area (0.07 mm^2) and translocation velocities were determined by off-line analysis (Image-Pro Plus, Media Cybernetics). For GPIbα inhibition studies, the function-blocking mAb 6D1 (20 μg/ml) or mAb SZ2 (20 μg/ml; Beckman Coulter) was added to anticoagulated human blood for 30 min prior to use. Experiments were performed in triplicate on two separate days. An ELISA was used to ensure equivalent coating concentration of plasma and recombinant proteins (Denis, C. et al. (1998) Proc. Natl. Acad. Sci. USA 95, 9524-9529).

murine platelets = test: Ristocetin-induced platelet aggregation assay (RIPA), murine platelet rich plasma; assay type: cell-based, mouse
Protocol: In a Ristocetin-induced platelet aggregation assays, platelet GPIb alpha binding to wild type human VWF or mouse VWF was analyzed in the absence or presence of ristocetin as described by Inbal, et al. (1993, Thromb. Haemost., 70:1058-1062). In this method, platelet rich plasma (PRP) is placed in a clear cuvette containing a stir bar and inserted into the aggregometer. Platelet aggregation is induced by the addition of ristocetin. […] In fact, only at concentrations of ≧2.5 mg/ml was there any evidence of murine platelet aggregation observed (˜30%, FIG. 10C).

human platelets [2] = conditions: cited from earlier work

## human plasma VWF: native human plasma VWF
Human platelets [1]
  translocation velocities of human platelets: 3.2±0.1 μm/sec

## ristocetin
Murine platelets; murine PRP, ristocetin ~1.0 mg/ml
  effect on murine platelets at the concentration that agglutinates human platelets: no such effect; also recorded: had no effect
Murine platelets; murine PRP, ristocetin ≧2.5 mg/ml
  platelet aggregation: ~30%
Human platelets [2]
  concentration known to cause agglutination of human platelets: ~1.0 mg/mL

## thrombin
Murine platelets; incubation of murine PRP with thrombin
  platelet aggregation: > 90%

## murine plasma VWF^1326R>H: plasma VWF obtained from mice homozygous for VWF^1326R>H
Human platelets [1]
  human platelet accumulation on immobilized protein: comparable with its human counterpart
  translocation velocities of human platelets: 3.5±0.1 μm/sec

## murine plasma VWF: surface-bound wild type murine plasma VWF
Human platelets [1]
  human platelet deposition as compared with same-species controls: 10%

B1: murine rVWF-A1: recombinant A1 domain of murine VWF, residues 1238 to 1471 (protein)
chain: QEPGGLVAPPTDAPVSSTTPYVEDTPEPPLHNFYCSKLLDLVFLLDGSSMLSEAEFEVLKAFVVGMMERLHISQKRIRVAVVEYHDGSRAYLELKARKRPSELRRITSQIKYTGSQVASTSEVLKYTLFQIFGKIDRPEASHITLLLTASQEPPRMARNLVRYVQGLKKKKVIVIPVGIGPHASLKQIRLIEKQAPENKAFLLSGVDELEQRRDEIVSYLCDLAPEAPAPTQPP
modifications: left off: small tags and cut ends
Human platelets [1]
  human platelet deposition as compared with same-species controls: 25%

B2: murine rVWF-A1 1370S>G: murine rVWF-A1 with human residue at position 1370, printed S>G (protein)
chain: B1 chain with G133S
modifications: left off: small tags and cut ends
notes: murine rVWF-A1 with human residue at position 1370, printed S>G
Human platelets [1]
  human platelet accumulation on immobilized protein: failed to promote the interaction

B3: murine rVWF-A1 1330E>G: murine rVWF-A1 with human residue at position 1330 (E>G) (protein)
chain: B1 chain with E93G
modifications: left off: small tags and cut ends
Human platelets [1]
  human platelet accumulation on immobilized protein: failed to promote the interaction
